{
  "source": "patent US20060293282A1",
  "about": "“Substituted aminoalkanephosphonic acids” (priority 2002, published 2006)",
  "key": {"Wistar Kyoto rats [1]": {"system": "Wistar Kyoto rats", "assay": "Test 2: NMDA-channel blocker induced head swaying and circling", "format": "in vivo", "details": "rat, 10 mg/kg s.c., 0-30 min", "description": "Test 2: NMDA-Channel Blocker Induced Head Swaying and Circling:\nAdult male Wistar Kyoto rats (340-380 g; Iffa Credo, Lyon, France) are used. The animals are randomized to the following treatment groups (n=10 per group): the compound (dosed 0, 3 or 10 mg/kg) followed by phencyclidine (PCP; an NMDA channel blocker, dosed 0 or 10 mg/kg). Compound (at t=−15 min) and PCP (at t=0 min) are administered s.c. in a volume of 1 ml/kg. Video-recordings of the animals behaviour over the period 0-30 min following PCP are scored by an observer who is unaware about the animals pretreatment. Head-swaying (rocking the head repeatedly by at least 2 cm left and right) and circling (turning around by using the forepaws, whereas the hindpaws remain more or less on the original position) are scored as present (1) or absent (0), every five minutes for the duruation of 1 minute. The scores for individual animals is summed and group scores used for statistical analysis (t-test with Bonferroni correction)."}, "Wistar Kyoto rats [2]": {"system": "Wistar Kyoto rats", "assay": "Test 1: NMDA-antagonist induced locomotion", "format": "in vivo", "details": "rat", "description": "Test 1: NMDA-Antagonist Induced Locomotion:\nMale Wistar Kyoto rats (Iffa Crédo, Lyon, France) weighing between 250 and 310 g are used. In principle 4 treatment groups are formed: 1) the compound (doses 1, 3 or 10 mg/kg) followed by the competitive NMDA receptor antagonist (S)-2-amino-3-(2′-chloro-5-phosphonomethyl-biphenyl-3-yl)-propionic acid, hereinafter SDZ 220-581 (10 mg/kg), 2) solvent-pretreatment followed by SDZ 220-581 (10 mg/kg), 3) solvent followed by solvent, 4) the compound (1, 3, 10 mg/kg) followed by solvent. Rats are randomly allocated to these pretreatment groups (n=10/dose group). Drugs are administered subcutaneous (s.c.), 15 min prior to SDZ 220-581. Immediately after the animals received SDZ 220-581, they are placed into the activity monitor for a period of 60 min. Locomotor activity is analysed over the initial 30 minutes.\nLocomotion is recorded with a videotracking system (VideoMot2, TSE Technical and Scientific Equipment GmbH, Bad Hombourg, Germany), using a closed circuit digital videocamera (WV-BP.330/GE, Panasonic, Osaka, Japan). The video-signal from the camera is digitized and used for data analysis. Animals are on a normal 12/12 h day-night cycle, with light on at 06:00H. Experiments are performed in a dimly lit room between 07:00 H and 15:00H. […] The camera is placed such, that four animals (one per arena) can be recorded simultaneously."}, "auditory neurons": {"system": "auditory neurons", "assay": "extracellular electrophysiological recording of auditory neuron firing rate"}, "neurons": {"system": "neurons", "details": "superfusion, in vitro", "excerpt": "The activity in tinnitus of the compounds is indicated in standard tests, e.g. in the salicylate-induced tinnitus model."}, "Wistar rats": {"system": "Wistar rats", "assay": "model of neuropathic pain in the rat (partial sciatic nerve ligation, mechanical hyperalgesia)", "format": "in vivo", "details": "10 mg/kg p.o., after 3 hours", "excerpt": "The activity of the compounds in the treatment of neuropathic pain is evidenced, for example, in the following model of neuropathic pain in the rat:\nWistar rats are anaesthetised with enflurane and a small incision is made mid-way up one thigh to expose the sciatic nerve. The nerve is cleared of connective tissue and a 7-0 silk suture is inserted into the nerve using a ⅜ curved reverse-cutting min-needle, and tightly ligated so that the dorsal ⅓ to ½ of the nerve thickness is held within the ligature. The muscle and skin are closed with sutures and clips and the wound dusted with antibiotic powder. […] Mechanical hyperalgesia is assessed by measuring paw withdrawal thresholds on both the ipsilateral (ligated) and contralateral (unligated) hindpaw to an increasing pressure stimulus applied to the paw using an analgesymeter (Ugo-Basile) with a wedge-shaped probe (area 1.75 mm^2) and a cut-off threshold of 250 g. […] Reversal of established hyperalgesia by administered compounds is measured 12-14 days following surgery, using 6 animals per treatment group. Paw withdrawal thresholds are measured prior to and then up to 6 hours following drug or vehicle administration. Statistical analysis is carried out on withdrawal threshold readings using ANOVA followed by Tukey's HSD test comparing drug treated and time-matched vehicle treated animals."}, "[3]": {"system": "patients with diabetic neuropathy", "assay": "clinical study of chronic pain in patients with diabetic neuropathy", "format": "in vivo, human", "details": "2400 mg/day, Maintenance and Follow-up Periods, statistically significant", "description": "The activity of the compounds of formula I in the treatment of neuropathic pain can be confirmed in clinical trials, for example in the following study aimed at evaluating the efficacy of a compound in treating chronic pain in patients with diabetic neuropathy:\nPatients are randomized to receive 2400 mg/day of the compound or placebo in a 1:1 ratio.\nThe study consists of a Pre-randomization Phase (1 week) and a Double-blind Phase (5 weeks). The double-blind Phase consists of three periods: a one week Titration Period, a three-week Maintenance Period and a one-week Follow-up Period.\nDuring the 1-week Pre-randomization Phase, the eligibility of the patients is evaluated. Patents meeting all inclusion/exclusion criteria are randomized to either the compound or placebo in the Double-blind Phase. […]\nThe SF-MPQ total pain score at the end of the Maintenance Period is analyzed using an analysis of covariance model adjusting for the effect of treatment on post-treatment scores by using the baseline SF-MPQ total pain score as a covariate. Average weekly pain severity is analyzed using an analysis of covariance model with repeated measures using the treatment week and the mean pain severity rating during the Pre-randomization Phase as covariates. Usage of rescue medication during the Double-blind Phase is analyzed using the Cochran-Mantel-Haenszel test controlling for center. […]"}},
  "data": [
    {"smiles": "c1ccc(C2(N3CCCCC3)CCCCC2)cc1", "note": "[PCP, phencyclidine]", "values": [
      {"measurement": "head-swaying and circling induced", "setting": "Wistar Kyoto rats [1]", "value": "weak head-swaying and circling"}
    ]},
    {"smiles": "N[C@@H](Cc1cc(CP(=O)(O)O)cc(-c2ccccc2Cl)c1)C(=O)O", "note": "[SDZ 220-581, (S)-2-amino-3-(2′-chloro-5-phosphonomethyl-biphenyl-3-yl)-propionic acid]", "values": [
      {"measurement": "distance walked during 30 min", "setting": "Wistar Kyoto rats [2]; 10 mg/kg s.c., control animals approximately 8-10 m", "value": "approximately 30 m"}
    ]},
    {"smiles": "C=C[C@H]1C[N@@]2CC[C@H]1C[C@H]2[C@H](O)c1ccnc2ccc(OC)cc12", "note": "[quinine]", "values": [
      {"measurement": "firing rate of auditory neurons", "setting": "auditory neurons", "value": "increase in the firing rate"}
    ]},
    {"smiles": "O=C(O)c1ccccc1O", "note": "[salicylate]", "values": [
      {"measurement": "excitability of the recorded neurons", "setting": "neurons", "value": "increases the excitability"},
      {"measurement": "firing rate of auditory neurons", "setting": "auditory neurons", "value": "increase in the firing rate"}
    ]},
    {"smiles": "O=c1[nH]c2cc([N+](=O)[O-])cc(CNCP(=O)(O)O)c2[nH]c1=O", "note": "[{[(7-nitro-2,3-dioxo-1,2,3,4-tetrahydro-quinoxalin-5-ylmethyl)-amino]-methyl}-phosphonic acid]", "values": [
      {"measurement": "maximal reversal of neuropathic mechanical hyperalgesia", "setting": "Wistar rats", "value": 35, "unit": "%"},
      {"measurement": "pain severity ratings relative to placebo", "setting": "[3]", "value": "decrease pain severity ratings relative to placebo"},
      {"measurement": "effect of the NMDA-antagonist SDZ 220-581 on locomotion after pretreatment", "setting": "Wistar Kyoto rats [2]; compound 10 mg/kg s.c., SDZ 220-581 10 mg/kg s.c.", "value": "almost normalized"}
    ]}
  ]
}
